According to US20200011856A1, “Method for Determining the Effectiveness of Treatment for the Prevention of Heartworm Disease” (priority 2017, published 2020):
Values joined by “and” are separate entries in the source; they are usually repeats but may differ in a detail not shown here. Equal entries are not always repeated.

How the values were obtained:
[1] = test system: Dirofilaria immitis (Merial worms, UC strain); test: D. immitis L3 infection of NSG mice with Merial worms / UC strain, treatment, recovery and count of worms; type: in vivo; details: for % Rec, Mean / Mean % Rec: group mean; for Mean Survival / Survival, Mean: in vivo
[2] = test system: Dirofilaria immitis; test: D. immitis L3 infection of NSG mice (FR3 Missouri strain or strain not stated), treatment, recovery and count of worms at necropsy; type: in vivo; details: for % Rec, Mean / Mean % Rec: group mean
[3] = NSG mice, 50 Di L3 Merial worms, 1 mg/kg on Days 1, 15, and 30, recovery Days 41 to 43
[4] = NSG mice, 50 Di L3 UC strain, High Dose 5 mg/kg on Days 1, 15, and 30, recovery Days 41 and 42
[5] = NSG mice, 50 Di L3 UC strain, Normal Dose 1 mg/kg on Days 1, 15, and 30, recovery Days 41 and 42
[6] = Table 9, NSG mice, 50 Di L3, 1 mg/kg on Days 1, 15, and 30, recovery Days 41 to 43
[7] = Table 9, individual mouse, NSG mice, 50 Di L3, 1 mg/kg on Days 1, 15, and 30, recovery Days 41 to 43
[8] = Table 11, NSG mice, 50 Di L3, 1 mg/kg on Days 1, 15, and 30, recovery Days 41 to 42
[9] = Table 11, NSG mice, 50 Di L3, 5 mg/kg on Days 1, 15, and 30, recovery Days 41 to 42

## C[C@H]1OC(=O)[C@H](CC(C)(C)C)N(C)C(=O)[C@@H](Cc2ccc(C3CCOCC3)cc2)OC(=O)[C@H](CC(C)(C)F)N(C)C(=O)[C@@H](C)OC(=O)[C@H](CC(C)(C)C)N(C)C(=O)[C@@H](Cc2ccc(C3CCOCC3)cc2)OC(=O)[C@H](CC(C)(C)F)N(C)C1=O [compound 4838]
[1]; 4838 1 mg/kg Days 1, 15, 30, 50 Di L3 (UC Strain) per NSG mouse, recovery Days 41 to 43
  % Rec, Mean: 9%
[1]; 4838 1 mg/kg Days 1, 15, 30, 50 Di L3 (UC Strain) per NSG mouse, recovery Days 41 to 43, individual mice, 1 mg/kg
  % Rec: 10% and 14% and 8% and 20% and 6% (2×) and 2%
[1]; 4838 1 mg/kg Days 1, 15, 30, 50 Di L3 (UC Strain) per NSG mouse, vs Control
  % Red: 75%
[1]; 4838 5 mg/kg Days 1, 15, 30, 50 Di L3 (UC Strain) per NSG mouse, recovery Days 41 to 43
  % Rec, Mean: 2%
[1]; 4838 5 mg/kg Days 1, 15, 30, 50 Di L3 (UC Strain) per NSG mouse, recovery Days 41 to 43, individual mice, 5 mg/kg
  % Rec: 2% (4×) and 0% and 4% (2×)
[1]; 4838 5 mg/kg Days 1, 15, 30, 50 Di L3 (UC Strain) per NSG mouse, vs Control
  % Red: 94%
[1]; [3]
  % Red: 38%
  Mean % Rec: 21%
[1]; [4]
  % Red: 92%
  Mean % Rec: 3%
[1]; [5]
  % Red: 58%
  Mean % Rec: 15%
[1]; 1 mg/kg
  Mean Survival: 10 and 8
  Survival, Mean: 5
[1]; 5 mg/kg
  Mean Survival: 1
  Survival, Mean: 1
[1]; individual mouse, NSG mice, 50 Di L3 Merial worms, 1 mg/kg on Days 1, 15, and 30, recovery Days 41 to 43, 1 mg/kg
  % Rec: 20% (3×) and 12% and 24% and 16% (2×) and 36%
[1]; individual mouse, NSG mice, 50 Di L3 UC strain, High Dose 5 mg/kg on Days 1, 15, and 30, recovery Days 41 and 42, 5 mg/kg
  % Rec: 4% (4×) and 0% and 2% (2×)
[1]; individual mouse, NSG mice, 50 Di L3 UC strain, Normal Dose 1 mg/kg on Days 1, 15, and 30, recovery Days 41 and 42, 1 mg/kg
  % Rec: 14% (3×) and 16% (3×) and 18%
[2]; 4838 1 mg/kg days 1, 15, 30, 50 Di L3 (FR3 worms) per NSG mouse, Table 17, vs Control
  % Red: % Red: 50%
[2]; 4838 1 mg/kg days 1, 15, 30, 50 Di L3 (FR3 worms) per NSG mouse, recovery Days 41 and 42, Table 17
  % Rec, Mean: 14%
[2]; 4838 1 mg/kg days 1, 15, 30, 50 Di L3 (FR3 worms) per NSG mouse, recovery Days 41 and 42, Table 17, individual mice, 1 mg/kg
  % Rec: 10% (2×) and 20% and 16% (2×) and 12% (2×)
[2]; 4838 2.5 mg/kg days 1, 15, 30, 50 Di L3 (FR3 worms) per NSG mouse, Table 17, vs Control
  % Red: % Red: 76%
[2]; 4838 2.5 mg/kg days 1, 15, 30, 50 Di L3 (FR3 worms) per NSG mouse, recovery Days 41 and 42, Table 17
  % Rec, Mean: 6%
[2]; 4838 2.5 mg/kg days 1, 15, 30, 50 Di L3 (FR3 worms) per NSG mouse, recovery Days 41 and 42, Table 17, individual mice, 2.5 mg/kg
  % Rec: 2% and 12% and 4% (3×) and 10% and 8%
[2]; 4838 5 mg/kg days 1, 15, 30, 50 Di L3 (FR3 worms) per NSG mouse, Table 17, vs Control
  % Red: % Red: 93%
[2]; 4838 5 mg/kg days 1, 15, 30, 50 Di L3 (FR3 worms) per NSG mouse, recovery Days 41 and 42, Table 17
  % Rec, Mean: 2%
[2]; 4838 5 mg/kg days 1, 15, 30, 50 Di L3 (FR3 worms) per NSG mouse, recovery Days 41 and 42, Table 17, individual mice, 5 mg/kg
  % Rec: 0% (4×) and 4% (3×)
[2]; 4838 10 mg/kg Days 1, 15, 30, 50 Di L3 per NSG mouse, Table 14, vs Control
  % Red: 100%
[2]; 4838 10 mg/kg Days 1, 15, 30, 50 Di L3 per NSG mouse, recovery Days 41 to 42, Table 14
  % Rec, Mean: 0%
[2]; 4838 10 mg/kg Days 1, 15, 30, 50 Di L3 per NSG mouse, recovery Days 41 to 42, Table 14, individual mice
  % Rec: 0%
[2]; 4838 10 mg/kg days 1, 15, 30, 50 Di L3 (FR3 worms) per NSG mouse, Table 17, vs Control
  % Red: % Red: 99%
[2]; 4838 10 mg/kg days 1, 15, 30, 50 Di L3 (FR3 worms) per NSG mouse, recovery Days 41 and 42, Table 17
  % Rec, Mean: 0.29%
[2]; 4838 10 mg/kg days 1, 15, 30, 50 Di L3 (FR3 worms) per NSG mouse, recovery Days 41 and 42, Table 17, individual mice, 10 mg/kg
  % Rec: 0% (6×) and 2%
[2]; 4838 .5 mg/kg days 1, 15, 30, 50 Di L3 (FR3 worms) per NSG mouse, Table 17, vs Control
  % Red: % Red: 36%
[2]; 4838 .5 mg/kg days 1, 15, 30, 50 Di L3 (FR3 worms) per NSG mouse, recovery Days 41 and 42, Table 17
  % Rec, Mean: 18%
[2]; 4838 .5 mg/kg days 1, 15, 30, 50 Di L3 (FR3 worms) per NSG mouse, recovery Days 41 and 42, Table 17, individual mice
  % Rec: 22% and 8% (2×) and 34% and 16% and 12% and 28%
[2]; [6]
  % Red: 24%
  Mean % Rec: 25%
[2]; [7]
  % Rec: 26% and 30% (2×) and 12% and 14% and 32%
[2]; [8]
  % Red: 21%
  Mean % Rec: 19%
[2]; [9]
  % Red: 92%
  Mean % Rec: 2%
[2]; Table 11, individual mouse, NSG mice, 50 Di L3, 1 mg/kg on Days 1, 15, and 30, recovery Days 41 to 42
  % Rec: 20% and 12% and 8% and 30% and 28% and 18%
[2]; Table 11, individual mouse, NSG mice, 50 Di L3, 5 mg/kg on Days 1, 15, and 30, recovery Days 41 to 42
  % Rec: 4% (2×) and 2% (3×) and 0%
[2]; in vivo
  Survival, Mean: 9
[2]; in vivo, 1 mg/kg
  Survival: 5 and 10 and 8 and 6
  Survival, Mean: 7
[2]; in vivo, 2.5 mg/kg
  Survival, Mean: 3
[2]; in vivo, 5 mg/kg
  Survival, Mean: 1
[2]; in vivo, 10 mg/kg
  Survival, Mean: 0

## COC(=O)Nc1nc2ccc(OS(=O)(=O)c3ccc(F)cc3)cc2[nH]1 [compound 8914, luxabendazole]
[2]; [6]
  % Red: 0%
  Mean % Rec: 33%
[2]; [7]
  % Rec: 24% and 32% and 28% and 48%
[2]; in vivo
  Mean Survival: 17
  Survival: 12 and 16 and 14 and 24
